We go through five compounds from US11324767B2, “Drug combination treatments using bone-targeting therapeutics for bone and bone-related disease” (MBC Pharma, Inc., priority 2017, dated 2022).

The structures appear in SMILES notation. Like-named read-outs stand apart in the source and are kept apart here.

The nature of series [1]: tolerability in mice (weight loss, nephrotoxicity).
Description: (§1) 143B-luc cells were then implanted into nude mice via intratibial injection, creating an orthotopic model for OS. The presence and growth of tumors was confirmed with in vivo imaging (Xenogen). Mice (N=8/treatment group) were then treated with 60 mg/kg GEM twice weekly and 15 mg/kg DTX once weekly, alone or in combination (15 mg/kg DTX with 20, 40 or 60 mg/kg GEM) and monitored for weight loss and tumor growth.
(§2) Tolerability for IB and GEM-IB was tested in a mouse model system. […] To ensure the health of mice throughout a longer study, doses were reduced to 6 mg/kg IB and equimolar doses of GEM-IB (14 mg/kg) and GEM (6 mg/kg) with 15 mg/kg DTX. Mice were implanted with the 143B-luc cells via intratibial injection and treatment started 4 days after implantation.
(§3) Mice were then treated with GEM-IB, GEM-IB with DTX, or the individual agents of GEM, DTX, or IB.
Series [2] relates to 143B-luc. The series is described as follows: cell culture treatment of human OS cell line 143B-luc (IC50, Bliss analysis).
Description: This was determined in culture with a human OS cell line—143B-luc (143B cells were transfected to express luciferase (luc) for use in a mouse model system).
Series [3] can be described thus: in vivo MicroCT of bone in OS mouse model. As to conditions: in vivo MicroCT 22 days after starting treatment; 6 mg/kg IB or 14 mg/kg GEM-IB.
Description: To ensure the health of mice throughout a longer study, doses were reduced to 6 mg/kg IB and equimolar doses of GEM-IB (14 mg/kg) and GEM (6 mg/kg) with 15 mg/kg DTX. Mice were implanted with the 143B-luc cells via intratibial injection and treatment started 4 days after implantation.
The nature of series [4]: clinically established MTD of MBC-11. The series is classed as in vivo, Human. Conditions: 2-hour infusion for up to 5 consecutive days. How it is done: The current clinically established MTD of MBC-11 indicates the method should be used where MBC-11 is administered at or below 5/mg/kg/day via a 2-hour infusion for up to 5 consecutive days and Xofigo is administered at or below the standard of care dosing regimen.

The subject of series [5] is bone lesions. The series is described as follows: phase I clinical trials of MBC-11 in patients with CIBD, bone lesions imaged by 18F-FDG-PET/CT. As to conditions: 15 patients, after MBC-11 therapy.
Description: (§4) MBC-11 was tested in recently completed phase I clinical trials in patients with CIBD.
Series [6] deals with prostate cancer induced bone disease. The series is described as follows: in vivo model of prostate cancer induced bone disease.
Description: as §4
Series [7] is described as follows: MTD and tolerability of GEM-IB dosing regimens. The series is classed as in vivo. The source says:
The MTD of the conjugate of Gemcitabine-to-Ibandronate is lower than that of MBC-1. Therefore, a conjugate of Gemcitabine-to-Ibandronate can be administered at or below 5/mg/kg/day via a 2-hour infusion for up to 5 consecutive days and Xofigo administered at or below its standard of care dosing regimen.

The conditions of series [8]: mouse, in vivo.
Description: as §1, §2, §3
The subject of series [9] is 143B-luc cells. The series is described as follows: orthotopic OS model: Kaplan-Meier survival until euthanasia due to large tumor size. Conditions: euthanized when largest tumor-laden leg diameter reached 10 mm above normal leg diameter (FIG. 4).
Excerpt: Mice were euthanized when largest tumor-laden leg diameter reached 10 mm above normal leg diameter. […] Mice euthanized for weight loss are not indicated as deaths in this chart, and are indicated as tick marks on day euthanized.
Setting [10] is: 60 mg/kg GEM twice weekly alone, 15 mg/kg DTX once weekly alone, or 15 mg/kg DTX with 20 or 40 mg/kg GEM, N=8/group.

In general, IC50 refers to the concentration needed to halve the response being measured. In the case of `Nc1ccn([C@@H]2O[C@H](CO)[C@@H](O)C2(F)F)c(=O)n1` [GEM, Gemcitabine], the weight loss entry in series [1] (setting [10]) is reported as “did not exhibit any weight loss”. For the same compound, the IC50 in series [2] (Homo sapiens) came out at 9 nM.

In the case of `CC(=O)O[C@@]12CO[C@@H]1C[C@H](O)[C@@]1(C)C(=O)[C@H](O)C3=C(C)[C@@H](OC(=O)[C@H](O)[C@@H](NC(=O)OC(C)(C)C)c4ccccc4)C[C@@](O)([C@@H](OC(=O)c4ccccc4)[C@H]21)C3(C)C` [DTX, docetaxel], in series [1] (setting [10]), the weight loss result is recorded as “did not exhibit any weight loss”. The IC50 in series [2] (143B-luc cells in culture, individual drug agent) amounted to 72 nM; in series [2] (read-out: IC50 of DTX in the presence of GEM, 143B-luc cells in culture, in the presence of 1 nM GEM) it was 0.12 nM. In addition, in [2] (in the presence of 1 nM GEM versus DTX alone), the “reduction of IC50 of DTX” value worked out at 600 fold.

With `CCCCCN(C)CCC(O)(P(=O)(O)O)P(=O)(O)O` [IB, ibandronate], in [3], the bone volume density result is given as “high” and the trabecular number result is on record as “high”. In addition, in [1] (IB 12 mg/kg twice weekly), the weight loss result is listed as “only minimal weight loss”. The nephrotoxicity result in series [1] (at higher levels) is “possible nephrotoxicity”. In series [1] (at lower doses), the tolerability entry was “well tolerated”.

Turning to `CC(O)(P(=O)(O)O)P(=O)(O)OP(=O)(O)OC[C@H]1O[C@@H](n2ccc(N)nc2=O)[C@@H](O)[C@@H]1O` (stereo partly shown) [MBC-11], the “dose indicated by the clinically established MTD” value in [4] is recorded as “up to 5 /mg/kg/day”. Also, the “bone lesions with a significant reduction (>25%) in glucose avidity” value in series [5] (206 bone lesions imaged (18F-FDG-PET/CT)) is given as 111 lesions. The “bone lesions significantly reduced in activity” value in [5] (206 bone lesions imaged) is reported as 53.8%.

A word on the MTD: it is the largest dose that counted as tolerated. For `CCCCCN(C)CCC(O)(P(=O)(O)O)P(=O)(O)OP(=O)(O)OC[C@H]1O[C@@H](n2ccc(N)nc2=O)C(F)(F)[C@@H]1O` (stereo partly shown) [GEM-IB], in series [6] (in vivo), the “activity compared to GEM-etidronate (GEM-ET), MBC-11 and cytarabine-IB” value is “more active”; the metastases after treatment entry is “significantly reduced”. In series [6] (study not designed for a survival endpoint), the survival entry was “improved survival trend”. The tolerability result in [7] (Monday, Wednesday and Friday dosing for three weeks at twice the 6 mg/kg daily dose) is reported as “well tolerated”. Moreover, the MTD in series [7] (dosing for five sequential days) is listed as 6 mg/kg/day. The “MTD compared with MBC-1” value in series [7] (in vivo) is on record as “lower”. Also, in series [3], the bone volume density result was “high” and the trabecular number result is “high”. In [8], the nephrotoxicity result is “possible nephrotoxicity” and the tolerability entry is on record as “well tolerated”. In addition, in [9], the “day after treatment initiation from which mice were sacrificed” value came out at 28 days.
